The source of these data is US11357752B2, “Carolacton and derivatives thereof for use in the treatment of cell proliferation disorders” (Helmholtz-Zentrum für Infektionsforschung GmbH, priority 2017, dated 2022).

The IC50 is the concentration that gives 50% inhibition. One may read the Ki as the dissociation constant of the complex between target and ligand, obtained from inhibition or displacement.

For assay [1], the target named is T1, hsMTHFD2 (Homo sapiens, UniProt P13995).
T1 construct: His-tag (vector pHis-TEV); made in house; host or cells: E. coli BL21 (DE3)
T1 sequence (P13995 36-350): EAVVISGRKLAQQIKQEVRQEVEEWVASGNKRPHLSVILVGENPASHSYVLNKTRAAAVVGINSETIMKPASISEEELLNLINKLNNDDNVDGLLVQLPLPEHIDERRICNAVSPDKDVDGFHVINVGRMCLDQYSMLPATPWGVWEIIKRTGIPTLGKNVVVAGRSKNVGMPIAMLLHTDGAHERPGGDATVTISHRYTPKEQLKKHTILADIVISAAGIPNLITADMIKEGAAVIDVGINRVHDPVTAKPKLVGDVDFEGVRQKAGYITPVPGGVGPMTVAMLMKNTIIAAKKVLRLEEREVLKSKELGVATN
Kind of assay: FoID dehydrogenase (DH) enzyme assay. It is filed as biochemical. The protocol:
(§1) (6R,S)-5,10-Methylene-5,6,7,8-tetrahydrofolic acid ((6R,S)-5,10-CH2-THF), calcium salt and (6R,S)-5,10-Methenyl-5,6,7,8-tetrahydrofolic acid ((6R,S)-5,10-CH=THF) chloride were purchased from Schircks Laboratories (Bauma, Switzerland) and were used as substrates for FoID dehydrogenase and cyclohydrolase enzyme assays, respectively. Only the R-isomer, which accounts for 50% of (6R,S)-5,10-CH2-THF and (6R,S)-5,10-CH=THF, respectively, is used by the enzyme. (6R,S)-5,10-CH2-THF was dissolved in N2-spargeled basic buffer (50 mM Tris-HCl (pH 8.0), 100 mM β-mercaptoethanol) as described by Sah and Varshney, 2015a (6R,S)-5,10-CH=THF was first dissolved in DMSO as a 100 mM stock solution.
(§2) Because FoID is a bifunctional enzyme, dehydrogenase and cyclohydrolase activities were determined for FoID enzyme kinetics, respectively. The dehydrogenase activity of FoID was assayed for its substrate 5,10-CH2-THF and cofactor NADP+ (in the case of MTHFD2, NAD+ was used as cofactor) based on monitoring the formation of 5,10-CH=THF while the cyclohydrolase activity of FoID was determined for its substrate 5,10-CH=THF by monitoring the hydrolysis of 5,10-CH2-THF. The enzyme kinetics for the dehydrogenase activity of all FoIDs except hsMTHFD1_DC were determined at 30° C. in 50 mM Tris-HCl (pH 7.5), 30 mM β-mercaptoethanol. The hsMTHFD1_DC dehydrogenase activity was measured in 25 mM MOPS (pH 7.3), 30 mM β-mercaptoethanol at 30° C. To measure the enzyme kinetics constants for 5,10-CH2-THF, for example in the case of ecFoID, the NADP concentration was fixed at 1 mM and the concentration of 5,10-CH2-THF varied from 5 μM to 1,500 μM (R-isomer). Similarly, to measure the kinetic constants of ecFoID for NADP+, the concentration of 5,10-CH2-THF (R-isomer) was fixed at 1 mM and the concentration of NADP+ varied from 10 μM to 1,500 μM. For different FoIDs, the varied concentration range of substrates could be different. The 50 μL reactions of dehydrogenase assays were initiated by adding appropriate amounts enzyme (4 nM ecFoID, 4 nM spFoID, 15 nM hsMTHFD1_DC, 20 nM hsMTHFD2, 20 nM G8S, 20 nM Q98H, 10 nM K54N, 200 nM ΔK54R55 in the corresponding assays) and terminated with 50 μL 1 M HCl after 2 min incubation at 30° C. To monitor the formation of 5,10-CH=THF, the absorbance of the reaction mixture was monitored at 350 nm in micro UV cuvettes (BRAND, Essex, Connecticut, USA). The concentration of 5,10-CH=THF produced in the reaction was determined using an extinction co-efficient of 0.0249 μM-1 cm-1. Cyclohydrolase activity for each FoID was assayed in the same buffer as dehydrogenase activity at 30° C. but for 30 s. The concentration of FoID used in each assay was 5 nM of ecFoID, spFoID and hsMTHFD1_DC, respectively, and 2 nM of hsMTHFD2. The consumption of 5,10-CH=THF was measured by recording the absorbance of the reactions at 355 nm using the TECAN Infinite 200 PRO equipped with a monochromator. To measure the enzyme kinetic constants, different concentrations of 5,10-CH=THF (varied from […]) were used in […] reaction mixtures. The inhibition constants (Ki) of carolacton on FoID were determined by measuring the apparent Km values when adding certain amounts of carolacton to the enzyme reactions. For ecFoID, 10 nM carolacton was added in the dehydrogenase assay and 50 nM carolacton was used in the cyclohydrolase assay. For spFoID, 25 nM carolacton was added in both dehydrogenase assay and cyclohydrolase assay. For hsMTHFD1_DC, 30 nM carolacton was added in the dehydrogenase assay and 10 nM in the cyclohydrolase assay. […] To compare the inhibition effects of carolacton between the different FoIDs, the half maximal inhibitory concentration (IC50) of carolacton on the same amount of enzyme was determined for FoIDs involved in this study. The enzyme concentration used to determine dehydrogenase activity IC50 was 10 nM, and the enzyme used for cyclohydrolase IC50 measurements was 5 nM. All enzyme kinetics measurements were performed as independent triplicates. […]

Assay [2] concerns the target T2, hsMTHFD1 DC301 (Homo sapiens, UniProt P11586).
T2 construct: We therefore expressed and purified hsMTHFD2 and hsMTHFD1_DC to test them biochemically; His-tag (vector pHis-TEV); made in house; host or cells: E. coli BL21 (DE3)
T2 sequence (P11586 2-291 limits assumed): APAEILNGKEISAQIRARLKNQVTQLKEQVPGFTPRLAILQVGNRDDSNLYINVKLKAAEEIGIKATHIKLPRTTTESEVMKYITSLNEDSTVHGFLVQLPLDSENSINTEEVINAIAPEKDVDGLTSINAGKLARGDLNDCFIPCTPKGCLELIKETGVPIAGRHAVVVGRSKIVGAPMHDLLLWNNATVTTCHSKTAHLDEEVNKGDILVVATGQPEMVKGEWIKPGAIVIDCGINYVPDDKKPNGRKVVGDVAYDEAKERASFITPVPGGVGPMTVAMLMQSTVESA
Kind of assay: FoID dehydrogenase (DH) enzyme assay. It is filed as biochemical. As to the method: as §1, §2

Setting [3] is: 10 nM enzyme, read-out: IC50, carolacton inhibition on DH activity.
Setting [4] is: vs 5,10-CH2-THF, read-out: Ki (5,10-CH2—THF), carolacton inhibition on DH activity.

Like-named read-outs stand apart in the source and are kept apart here.

With `CO[C@H](CC(=O)O)[C@@H](C)C(=O)[C@H](C)/C=C(\C)[C@H]1OC(=O)[C@H](O)[C@H](O)/C=C/[C@H](C)CCC[C@@H]1C` [Carolacton, carolacton], the results for the half-maximal inhibitory concentration (IC50) in assay [1] (setting [3]) and in assay [2] (setting [3]) were 6.5 nM and 38 nM, respectively. In addition, the Ki in assay [1] (cofactor is NAD in the case of hsMTHFD2, read-out: Ki (NADP^+)^a, carolacton inhibition on DH activity) was determined as 16.7 nM; in assay [1] (setting [4]), 6.42 nM; in assay [2] (setting [4]) it was 5.93 nM; in assay [2] (vs cofactor NADP+, read-out: Ki (NADP^+), carolacton inhibition on DH activity), 58.7 nM.
